# Assay results published in patent US20110071108A1, “Beta-Cyclodextrin Derivatives as Antibacterial Agents” (Pinnacle Pharmaceuticals, Inc., priority 2005, published 2011).
# Key:
# Bacillus atrophaeus = experiment: Bacterial panel testing, MIC by broth microdilution; type: cell-based; settings: 20-24 hours growth
# Outline: (§1)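 Bacteria are cultured briefly at 37° C, standardized to McFarland density and diluted into Mueller-Hinton or Brain Heart infusion media. Compound from a 10 μg/ml DMSO solution is serially diluted twofold in this inoculated medium, and growth inhibition is scored as clear wells after 20-24 h.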
# Enterococcus faecium = experiment: as above; type: cell-based; settings: 20-24 hours growth
# Outline: as §1
# Eschericia coli = experiment: as above; type: cell-based; settings: 20-24 hours growth
# Outline: as §1
# Pseudomonas aeruginosa = experiment: as above; type: cell-based; settings: 20-24 hours growth
# Outline: as §1
# Salmonella choleraesuis = experiment: as above; type: cell-based; settings: 20-24 hours growth
# Outline: as §1
# Staphylococcus aureus = experiment: as above; type: cell-based; settings: 20-24 hours growth
# Outline: as §1
# Lungs cancer cells A549 = experiment: Mammalian cytotoxicity
SMILES,MIC BA (Bacillus atrophaeus),MIC EF (Enterococcus faecium),MIC EC (Eschericia coli),MIC PA (Pseudomonas aeruginosa),MIC SC (Salmonella choleraesuis),MIC SA (Staphylococcus aureus),Mammalian Cytotoxicity IC50 (Lungs cancer cells A549)
OC[C@H]1O[C@@H]2O[C@H]3[C@H](O)[C@@H](O)[C@@H](O[C@H]4[C@H](O)[C@@H](O)[C@@H](O[C@H]5[C@H](O)[C@@H](O)[C@@H](O[C@H]6[C@H](O)[C@@H](O)[C@@H](O[C@H]7[C@H](O)[C@@H](O)[C@@H](O[C@H]8[C@H](O)[C@@H](O)[C@@H](O[C@H]1[C@H](O)[C@H]2O)O[C@@H]8CO)O[C@@H]7CO)O[C@@H]6CO)O[C@@H]5CO)O[C@@H]4CO)O[C@@H]3CO,>200 µg/mL,>200 µg/mL,>200 µg/mL,>200 µg/mL,>200 µg/mL,>200 µg/mL,
O[C@@H]1[C@@H](O)[C@H]2O[C@H]3[C@H](O)[C@@H](O)[C@@H](O[C@H]4[C@H](O)[C@@H](O)[C@@H](O[C@H]5[C@H](O)[C@@H](O)[C@@H](O[C@H]6[C@H](O)[C@@H](O)[C@@H](O[C@H]7[C@H](O)[C@@H](O)[C@@H](O[C@H]8[C@H](O)[C@@H](O)[C@@H](O[C@@H]1[C@@H](CNCc1ccccc1)O2)O[C@@H]8CNCc1ccccc1)O[C@@H]7CNCc1ccccc1)O[C@@H]6CNCc1ccccc1)O[C@@H]5CNCc1ccccc1)O[C@@H]4CNCc1ccccc1)O[C@@H]3CNCc1ccccc1,,,,>200 µg/mL,,,840 µg/mL
O[C@@H]1[C@@H](O)[C@H]2O[C@H]3[C@H](O)[C@@H](O)[C@@H](O[C@H]4[C@H](O)[C@@H](O)[C@@H](O[C@H]5[C@H](O)[C@@H](O)[C@@H](O[C@H]6[C@H](O)[C@@H](O)[C@@H](O[C@H]7[C@H](O)[C@@H](O)[C@@H](O[C@H]8[C@H](O)[C@@H](O)[C@@H](O[C@@H]1[C@@H](CSCc1ccccc1)O2)O[C@@H]8CSCc1ccccc1)O[C@@H]7CSCc1ccccc1)O[C@@H]6CSCc1ccccc1)O[C@@H]5CSCc1ccccc1)O[C@@H]4CSCc1ccccc1)O[C@@H]3CSCc1ccccc1,>200 µg/mL,>200 µg/mL,>200 µg/mL,>200 µg/mL,>200 µg/mL,>200 µg/mL,
CC(=O)OC1C2OC(Cn3cc(Cc4ccccc4)nn3)C(OC3OC(Cn4cc(Cc5ccccc5)nn4)C(OC4OC(Cn5cc(Cc6ccccc6)nn5)C(OC5OC(Cn6cc(Cc7ccccc7)nn6)C(OC6OC(Cn7cc(Cc8ccccc8)nn7)C(OC7OC(Cn8cc(Cc9ccccc9)nn8)C(OC8OC(Cn9cc(Cc%10ccccc%10)nn9)C(O2)C(OC(C)=O)C8OC(C)=O)C(OC(C)=O)C7OC(C)=O)C(OC(C)=O)C6OC(C)=O)C(OC(C)=O)C5OC(C)=O)C(OC(C)=O)C4OC(C)=O)C(OC(C)=O)C3OC(C)=O)C1OC(C)=O (stereo not shown),>200 µg/mL,>200 µg/mL,>200 µg/mL,>200 µg/mL,>200 µg/mL,>200 µg/mL,
OC1C2OC(Cn3cc(Cc4ccccc4)nn3)C(OC3OC(Cn4cc(Cc5ccccc5)nn4)C(OC4OC(Cn5cc(Cc6ccccc6)nn5)C(OC5OC(Cn6cc(Cc7ccccc7)nn6)C(OC6OC(Cn7cc(Cc8ccccc8)nn7)C(OC7OC(Cn8cc(Cc9ccccc9)nn8)C(OC8OC(Cn9cc(Cc%10ccccc%10)nn9)C(O2)C(O)C8O)C(O)C7O)C(O)C6O)C(O)C5O)C(O)C4O)C(O)C3O)C1O (stereo not shown),>200 µg/mL,>200 µg/mL,>200 µg/mL,>200 µg/mL,>200 µg/mL,>200 µg/mL,
Cl.Cl.Cl.Cl.Cl.Cl.Cl.NC(CCC(=O)O)C(=O)NCC1OC2OC3C(CNC(=O)C(N)CCC(=O)O)OC(OC4C(CNC(=O)C(N)CCC(=O)O)OC(OC5C(CNC(=O)C(N)CCC(=O)O)OC(OC6C(CNC(=O)C(N)CCC(=O)O)OC(OC7C(CNC(=O)C(N)CCC(=O)O)OC(OC8C(CNC(=O)C(N)CCC(=O)O)OC(OC1C(O)C2O)C(O)C8O)C(O)C7O)C(O)C6O)C(O)C5O)C(O)C4O)C(O)C3O (stereo not shown),>200 µg/mL,>200 µg/mL,>200 µg/mL,>200 µg/mL,>200 µg/mL,>200 µg/mL,
Cl.Cl.Cl.Cl.Cl.Cl.Cl.Cl.Cl.Cl.Cl.Cl.Cl.Cl.NC(Cc1cnc[nH]1)C(=O)NCC1OC2OC3C(CNC(=O)C(N)Cc4cnc[nH]4)OC(OC4C(CNC(=O)C(N)Cc5cnc[nH]5)OC(OC5C(CNC(=O)C(N)Cc6cnc[nH]6)OC(OC6C(CNC(=O)C(N)Cc7cnc[nH]7)OC(OC7C(CNC(=O)C(N)Cc8cnc[nH]8)OC(OC8C(CNC(=O)C(N)Cc9cnc[nH]9)OC(OC1C(O)C2O)C(O)C8O)C(O)C7O)C(O)C6O)C(O)C5O)C(O)C4O)C(O)C3O (stereo not shown),>200 µg/mL,>200 µg/mL,>200 µg/mL,>200 µg/mL,>200 µg/mL,>200 µg/mL,
OC1C2OC(CNC(=S)Nc3ccccc3)C(OC3OC(CNC(=S)Nc4ccccc4)C(OC4OC(CNC(=S)Nc5ccccc5)C(OC5OC(CNC(=S)Nc6ccccc6)C(OC6OC(CNC(=S)Nc7ccccc7)C(OC7OC(CNC(=S)Nc8ccccc8)C(OC8OC(CNC(=S)Nc9ccccc9)C(O2)C(O)C8O)C(O)C7O)C(O)C6O)C(O)C5O)C(O)C4O)C(O)C3O)C1O (stereo not shown),>200 µg/mL,>200 µg/mL,>200 µg/mL,>200 µg/mL,>200 µg/mL,>200 µg/mL,
OC1C2OC(CNC(=S)NCc3ccccc3)C(OC3OC(CNC(=S)NCc4ccccc4)C(OC4OC(CNC(=S)NCc5ccccc5)C(OC5OC(CNC(=S)NCc6ccccc6)C(OC6OC(CNC(=S)NCc7ccccc7)C(OC7OC(CNC(=S)NCc8ccccc8)C(OC8OC(CNC(=S)NCc9ccccc9)C(O2)C(O)C8O)C(O)C7O)C(O)C6O)C(O)C5O)C(O)C4O)C(O)C3O)C1O (stereo not shown),>200 µg/mL,>200 µg/mL,>200 µg/mL,>200 µg/mL,>200 µg/mL,>200 µg/mL,
O[C@@H]1[C@@H](O)[C@H]2O[C@H]3[C@H](O)[C@@H](O)[C@@H](O[C@H]4[C@H](O)[C@@H](O)[C@@H](O[C@H]5[C@H](O)[C@@H](O)[C@@H](O[C@H]6[C@H](O)[C@@H](O)[C@@H](O[C@H]7[C@H](O)[C@@H](O)[C@@H](O[C@H]8[C@H](O)[C@@H](O)[C@@H](O[C@@H]1[C@@H](CNCCc1ccccc1)O2)O[C@@H]8CNCCc1ccccc1)O[C@@H]7CNCCc1ccccc1)O[C@@H]6CNCCc1ccccc1)O[C@@H]5CNCCc1ccccc1)O[C@@H]4CNCCc1ccccc1)O[C@@H]3CNCCc1ccccc1,,,,>200 µg/mL,,,43 µg/mL
O[C@@H]1[C@@H](O)[C@H]2O[C@H]3[C@H](O)[C@@H](O)[C@@H](O[C@H]4[C@H](O)[C@@H](O)[C@@H](O[C@H]5[C@H](O)[C@@H](O)[C@@H](O[C@H]6[C@H](O)[C@@H](O)[C@@H](O[C@H]7[C@H](O)[C@@H](O)[C@@H](O[C@H]8[C@H](O)[C@@H](O)[C@@H](O[C@@H]1[C@@H](CNC1CCN(Cc9ccccc9)CC1)O2)O[C@@H]8CNC1CCN(Cc2ccccc2)CC1)O[C@@H]7CNC1CCN(Cc2ccccc2)CC1)O[C@@H]6CNC1CCN(Cc2ccccc2)CC1)O[C@@H]5CNC1CCN(Cc2ccccc2)CC1)O[C@@H]4CNC1CCN(Cc2ccccc2)CC1)O[C@@H]3CNC1CCN(Cc2ccccc2)CC1,,,,>200 µg/mL,,,127 µg/mL
CCCCCCNC[C@H]1O[C@@H]2O[C@H]3[C@H](O)[C@@H](O)[C@@H](O[C@H]4[C@H](O)[C@@H](O)[C@@H](O[C@H]5[C@H](O)[C@@H](O)[C@@H](O[C@H]6[C@H](O)[C@@H](O)[C@@H](O[C@H]7[C@H](O)[C@@H](O)[C@@H](O[C@H]8[C@H](O)[C@@H](O)[C@@H](O[C@H]1[C@H](O)[C@H]2O)O[C@@H]8CNCCCCCC)O[C@@H]7CNCCCCCC)O[C@@H]6CNCCCCCC)O[C@@H]5CNCCCCCC)O[C@@H]4CNCCCCCC)O[C@@H]3CNCCCCCC,,,,>200 µg/mL,,,129 µg/mL
CCCCCCCCNC[C@H]1O[C@@H]2O[C@H]3[C@H](O)[C@@H](O)[C@@H](O[C@H]4[C@H](O)[C@@H](O)[C@@H](O[C@H]5[C@H](O)[C@@H](O)[C@@H](O[C@H]6[C@H](O)[C@@H](O)[C@@H](O[C@H]7[C@H](O)[C@@H](O)[C@@H](O[C@H]8[C@H](O)[C@@H](O)[C@@H](O[C@H]1[C@H](O)[C@H]2O)O[C@@H]8CNCCCCCCCC)O[C@@H]7CNCCCCCCCC)O[C@@H]6CNCCCCCCCC)O[C@@H]5CNCCCCCCCC)O[C@@H]4CNCCCCCCCC)O[C@@H]3CNCCCCCCCC,,,,>200 µg/mL,,,123 µg/mL
C[C@@H](NCC1OC2OC3C(CN[C@H](C)c4ccccc4)OC(OC4C(CN[C@H](C)c5ccccc5)OC(OC5C(CN[C@H](C)c6ccccc6)OC(OC6C(CN[C@H](C)c7ccccc7)OC(OC7C(CN[C@H](C)c8ccccc8)OC(OC8C(CN[C@H](C)c9ccccc9)OC(OC1C(O)C2O)C(O)C8O)C(O)C7O)C(O)C6O)C(O)C5O)C(O)C4O)C(O)C3O)c1ccccc1 (stereo partly shown),,,,>200 µg/mL,,,105 µg/mL
COc1cccc(CNCC2OC3OC4C(CNCc5cccc(OC)c5)OC(OC5C(CNCc6cccc(OC)c6)OC(OC6C(CNCc7cccc(OC)c7)OC(OC7C(CNCc8cccc(OC)c8)OC(OC8C(CNCc9cccc(OC)c9)OC(OC9C(CNCc%10cccc(OC)c%10)OC(OC2C(O)C3O)C(O)C9O)C(O)C8O)C(O)C7O)C(O)C6O)C(O)C5O)C(O)C4O)c1 (stereo not shown),,,,>200 µg/mL,,,282 µg/mL
COc1ccccc1CNCC1OC2OC3C(CNCc4ccccc4OC)OC(OC4C(CNCc5ccccc5OC)OC(OC5C(CNCc6ccccc6OC)OC(OC6C(CNCc7ccccc7OC)OC(OC7C(CNCc8ccccc8OC)OC(OC8C(CNCc9ccccc9OC)OC(OC1C(O)C2O)C(O)C8O)C(O)C7O)C(O)C6O)C(O)C5O)C(O)C4O)C(O)C3O (stereo not shown),,,,>200 µg/mL,,,297 µg/mL
